Measurements reported in US5880076A, “Compositions comprising glycacarbamate and glycaurea compounds” (Lever Brothers Company, Division of Conopco, Inc., priority 1997, dated 1999).
Blank lines part the entries; values can stand above or below the compound they belong to.

Key:
[1] = Critical Micelle Concentration (micelle formation); format: physicochemical
Source text: The critical micelle concentration (CMC) is defined as the concentration at which a surfactant forms micelles in aqueous solution. […] A necessary and sufficient condition for CMC formation and surface tension reduction is the presence of both hydrophilic and hydrophobic functional groups. The hydrophilic portion provides strong interaction between the surfactant at the interface and with the surrounding water phase. The hydrophobic portion provides spontaneous adsorption of the surfactant at the interface and strong interaction with the adjacent air phase. If any of these functions are not performed, then CMC formation and surface tension reduction will not occur. For significant surface activity, a properly balanced hydrophilic and hydrophobic character is essential.

[2] = Surface Tension Reduction; format: physicochemical
Source text: An important characteristic feature that surfactants have is the tendency for them to absorb at the water/air interface in an oriented manner, thereby altering the interfacial free energy of that surface. The surface free energy per unit area or surface tension (γ), is a measure of this work and may be considered as the minimum amount of work required to bring sufficient surfactant molecules to the surface.

[3] = Pearlescent/Suspending Action in prototype personal product compositions; format: physicochemical; settings: for Appearance (pearlescence/suspending): 15.0% sodium lauryl sulfate, room temperature, 1 month
Description: The formulations were placed in a clear jar and stored for 1 month. The prototype personal product compositions are as follows:
Personal Product Compositions Comprising Sodium
(§1) Lauryl Sulfate and Glycacarbamate Compounds
N-Tallow D-Glucocarbamate
0.5-4.0% Pearlescent/Suspending
(§2) 2.0% Viscosity Cobuilder
(§3) Lauryl Sulfate and Glycaurea Compounds
(§4) The above formulations were prepared by admixing the above ingredients in listed order and heating the mixture to about 80° C. with rapid stirring. The mixture was then cooled to about 40° C., placed in a clear jar and stored at room temperature.
For a pearlecent personal product formulation to be successful it must have good shelf life and should not separate upon standing.

[4] = Flow aids: water uptake and appearance of intimate admixtures; format: physicochemical; settings: for handling and flowing characteristics (in words): intimate admixtures with ODS, SCMOS, CP-5 or CP-7; for Appearance (flow) / % H2O Uptake: 25° C., 65% R.H.; for % H2O Uptake: based on builder
Source text: It is known in the are that certain ingredients are hygroscopic in nature and liquify after exposure to moisture after a few days. […] Samples were removed periodically, weighed and returned to R. H. chamber. Percent water uptake was based on the amound of builder present. % H2 O Uptake=grams of water absorbed/grams of builder×100 Identical mixtures of ODS, SCMOS, CP-5 or CP-7 and methyl α-D-glucose-6-O-monolaurate (c12 Mgluc), dodecyl β-D-glucopyranoside (C12 Gluc), dodecyl β-D-maltoside (C12 Malt), D-glucose or D-sorbitol were also prepared and are used for comparison. When the comparative sugar surfactant of monosacchardie are used, percent water uptake was based on the amount of saccharide present. % H2 O Uptake=grams of water absorbed/grams of saccharide×100

[5] = Water Solubility and Krafft Point (0.1% solution in water, 40° C.)
Source text: The temperature at which a surfactant forms micelles instead of precipitates is referred to as the Krafft point (Tk), and at or below this temperature the solubility of a surfactant becomes equal to its CMC (numerical value at which micelles are formed).

[6] = Viscosity Modification of Sodium Lauryl Sulfate prototype detergent compositions; format: physicochemical; settings: for Appearance (viscosity) / Viscosity Increase: 15.0% sodium lauryl sulfate; for Viscosity Increase: 22° C.
Description: The prototype detergent compositions are as follows:
(§5) Detergent Compositions Comprising Sodium
as §1
N-Dodecyl D-Glucocarbamate
2.0-7.0% Foam Stabilizer/Thickener
as §2, §3, §4
It is well known that the viscosity of a liquid composition comprision of anionic surfactant can be modified by the addition of inorganic salts, such as sodium chloride. However, in the absence of an organic modifier, high levels of salt may be necessary to achieve the required viscosity which may lead to problems of storage at cold temperature or even salting our certain ingrediets. In practice, however, the viscosity of a liquid compositionis modified by the simultaneous addition of thickener and small amounts of inorganic salt (viscosity cobuilder). The combined effect is greater than either one alone. The viscosity of the above prototype detergent compositions comprising various amounts of glycacarbamate/urea compound are as follows: […]

[7] = Clarity Enhancement of prototype detergent compositions; format: physicochemical; settings: detergent formulation
Description: The formulations were placed in a clear jar and stored for 1 month. The prototype detergent compositions are as follows:
as §5, §1
N-Coconut D-Glucocarbamate
0.5-4.0% Foam Stabilizer/Thickener
as §3, §4
For a clear detergent formulation to be successful it must have good shelf life and should not become turbid or produce sedimentation upon standing.

[8] = Viscosity Enhancement/Foam Stabilization (Brookfield Digital Viscometer); settings: for Viscosity (Centipoise): 22° C.
[9] = Water solubility and turbidity in aqueous personal product and detergent compositions (statement)

Compound: CCCCCCCCCCN(C[C@H](O)[C@@H](O)[C@H](O)[C@H](O)CO)C(N)=O [N-Decyl D-Glucourea]
CMC at 40° C. (micelle formation) ([1]; 40° C.): Yes
Surface tension reduction (γ) at 40° C. ([2]; 40° C.): Yes
H2O Solubility at 40° C. ([5]; 40° C.): Yes
Krafft point (Tk) ([5]; 40° C.): Below Tk

Compound: O=C([O-])CC(OC(CC(=O)[O-])C(=O)[O-])C(=O)[O-].[Na+].[Na+].[Na+].[Na+] (centres unmarked) [Na4 ODS, tetrasodium oxydisuccinate, reference compound]
Appearance (flow) ([4]; 4 days): Liquid
% H2O Uptake ([4]; 4 days): 59%

Compound: CCCCCCCCCCCCN1C[C@H](O)[C@H]([C@H](O)[C@H](O)CO)OC1=O [N-Dodecyl D-Glucocarbamate]
CMC at 40° C. (micelle formation) ([1]; 40° C.): Yes
Surface tension reduction (γ) at 40° C. ([2]; 40° C.): Yes
Appearance (viscosity) ([6]; 2.0% thickener): Slightly Viscous
Viscosity Increase ([6]; 2.0% thickener): Yes
Appearance (viscosity) ([6]; 4.0% thickener): Viscous
Viscosity Increase ([6]; 4.0% thickener): Yes
Appearance (viscosity) ([6]; 7.0% thickener): Very Viscous
Viscosity Increase ([6]; 7.0% thickener): Yes
viscosity increase (in words) ([6]; compared with D-glucose): increases the viscosity of that composition more effectively than D-glucose
clarity (in words) [7]: clear without sedimentation
handling and flowing characteristics (in words) [4]: improved the handling and flowing characteristics
H2O Solubility at 40° C. ([5]; 40° C.): Yes
Krafft point (Tk) ([5]; 40° C.): Below Tk
Foam Stability ([8]; 4.0% thickener): Yes
viscosity increase from normal viscosity ([8]; 4.0% thickener): 99-104 times
Viscosity (Centipoise) ([8]; 4.0% thickener): 2176 Centipoise
Foam Stability ([8]; 4.0% thickener, listed as N-dodecyl D-glucocarbamate): stabilize foam
viscosity enhancement and foam stabilization (comparison in words) ([8]; compared with lauramide DEA, cocoamide MEA, Neodol 91-6 and D-glucose): enhance viscosity and stabilze foam compartively to lauramide diethanolamine (DEA), but better than cocoamide menoethanolamine (MEA), Neodol 91-6 (C9 -C11 alcohol ethoxylate with 6 moles of ethylene oxide) and D-glucose

Compound: CCCCCCCCCCCCCCCCN1C[C@H](O)[C@H]([C@H](O)[C@H](O)CO)OC1=O [N-Hexadecyl D-Glucocarbamate]
CMC at 40° C. (micelle formation) ([1]; 40° C.): No
CMC at 40° C. (micelle formation) ([1]; 40° C., listed as E): do not form micelles
Surface tension reduction (γ) at 40° C. ([2]; 40° C.): No
Surface tension reduction (γ) at 40° C. ([2]; 40° C., listed as E): do not significantly reduce the surface tension of water
H2O Solubility at 40° C. ([5]; 40° C.): No
Krafft point (Tk) ([5]; 40° C.): Above Tk
H2O Solubility at 40° C. ([5]; 40° C., listed as E): insoluble in water

Compound: CCCCCCCCCCCC(=O)N(CCO)CCO [Lauramide DEA, lauric diethanolamide, reference compound]
Foam Stability ([8]; 4.0% thickener): Yes
Viscosity (Centipoise) ([8]; 4.0% thickener): 2376 Centipoise

Compound: O=C[C@H](O)[C@@H](O)[C@H](O)[C@H](O)CO [D-Glucose, D-glucose, reference compound]
Appearance (viscosity) ([6]; 2.0% thickener): Purable Liquid
Viscosity Increase ([6]; 2.0% thickener): No
Appearance (viscosity) ([6]; 4.0% thickener): Purable Liquid
Viscosity Increase ([6]; 4.0% thickener): No
Appearance (viscosity) ([6]; 7.0% thickener): Purable Liquid
Viscosity Increase ([6]; 7.0% thickener): No
Foam Stability ([8]; 4.0% thickener): No
Viscosity (Centipoise) ([8]; 4.0% thickener): 27 Centipoise

Compound: CCCCCCCCCCCCN1C[C@H](O)[C@H]([C@H](O[C@H]2O[C@H](CO)[C@@H](O)[C@H](O)[C@H]2O)[C@H](O)CO)OC1=O [N-Dodecyl D-Maltocarbamate]
CMC at 40° C. (micelle formation) ([1]; 40° C.): Yes
Surface tension reduction (γ) at 40° C. ([2]; 40° C.): Yes
H2O Solubility at 40° C. ([5]; 40° C.): Yes
Krafft point (Tk) ([5]; 40° C.): Below Tk
water solubility ([9]; compared to other known glycacarbamate and glycaurea compounds): enhanced water solubility
turbidity ([9]; in aqueous personal product and detergent compositions): less turbid

Compound: CCCCCCCCCCN1C[C@H](O)[C@H]([C@H](O)[C@H](O)CO)OC1=O [N-Decyl D-Glucocarbamate]
CMC at 40° C. (micelle formation) ([1]; 40° C.): Yes
Surface tension reduction (γ) at 40° C. ([2]; 40° C.): Yes
H2O Solubility at 40° C. ([5]; 40° C.): Yes
Krafft point (Tk) ([5]; 40° C.): Below Tk

The next lines start with results.

CMC at 40° C. (micelle formation) ([1]; 40° C.): No
Surface tension reduction (γ) at 40° C. ([2]; 40° C.): No
Appearance (pearlescence/suspending) ([3]; 0.5% opacifier): Pearlescent/Suspending Action
Appearance (pearlescence/suspending) ([3]; 1.0% opacifier): Pearlescent/Suspending Action
Appearance (pearlescence/suspending) ([3]; 2.0% opacifier): Pearlescent/Suspending Action
Appearance (pearlescence/suspending) ([3]; 3.0% opacifier): Pearlescent/Suspending Action
Appearance (pearlescence/suspending) ([3]; 4.0% opacifier): Pearlescent/Suspending Action
pearlescence (in words) ([3]; sodium lauryl sulfate compositions): excellent pearlescence
H2O Solubility at 40° C. ([5]; 40° C.): No
Krafft point (Tk) ([5]; 40° C.): Above Tk
Compound: CCCCCCCCCCCCCCCCN(C[C@H](O)[C@@H](O)[C@H](O)[C@H](O)CO)C(N)=O [N-Hexadecyl D-Glucourea]
handling and flowing characteristics (in words) [4]: improved the handling and flowing characteristics

CMC at 40° C. (micelle formation) ([1]; with slight heating): Yes
Surface tension reduction (γ) at 40° C. ([2]; with slight heating): Yes
H2O Solubility at 40° C. ([5]; with slight heating): Yes
Krafft point (Tk) ([5]; with slight heating): Below Tk
Compound: CCCCCCCCCCCCCCN1C[C@H](O)[C@H]([C@H](O)[C@H](O)CO)OC1=O [N-Tetradecyl D-Glucocarbamate]
handling and flowing characteristics (in words) [4]: improved the handling and flowing characteristics

CMC at 40° C. (micelle formation) ([1]; 40° C.): No
CMC at 40° C. (micelle formation) ([1]; 40° C., listed as F): do not form micelles
Surface tension reduction (γ) at 40° C. ([2]; 40° C.): No
H2O Solubility at 40° C. ([5]; 40° C.): No
Krafft point (Tk) ([5]; 40° C.): Above Tk
H2O Solubility at 40° C. ([5]; 40° C., listed as F): insoluble in water
Compound: CCCCCCCCCCCCCCCCCCN1C[C@H](O)[C@H]([C@H](O)[C@H](O)CO)OC1=O [N-Octadecyl D-Glucocarbamate]
Surface tension reduction (γ) at 40° C. ([2]; 40° C., listed as F): do not significantly reduce the surface tension of water

Appearance (flow) ([4]; 9 days): Sticky Paste
% H2O Uptake ([4]; 9 days): 38%
Compound: tetrasodium sulfocarboxymethyloxysuccinate [Na4 SCMOS, reference compound]

CMC at 40° C. (micelle formation) ([1]; 40° C.): Yes
Surface tension reduction (γ) at 40° C. ([2]; 40° C.): Yes
H2O Solubility at 40° C. ([5]; 40° C.): Yes
Krafft point (Tk) ([5]; 40° C.): Below Tk
Compound: CCCCCCCCN1C[C@H](O)[C@H]([C@H](O)[C@H](O)CO)OC1=O [N-Octyl D-Glucocarbamate]
